≈ marks a conversion by molar mass, not a printed value. One block for each compound: values may come before it. Calls of active or inactive are those of the source. No cut-off for these calls is given here.
Columns and labels:
[1] = target: T1, C-C chemokine receptor type 2 (Homo sapiens, UniProt P41597); test: Displacement of 125I-MCP1 from human CCR2 receptor expressed in human THP-1 cell membrane by SPA assay; assay type: cell membranes
[2] = target: T1, C-C chemokine receptor type 2; test: Antagonist activity at human CCR2 receptor expressed in human THP-1 cells assessed as inhibition of MCP1-induced Ca2+ flux by FLIPR analysis; assay type: functional, cell-based
[3] = Intrinsic clearance in rat hepatocytes assessed per 10^6 cells; assay type: ADME, cell-based, Hepatocyte; conditions: read-out: CLH
[4] = Intrinsic clearance in dog hepatocytes assessed per 10^6 cells; assay type: ADME, cell-based, Canis lupus familiaris, Hepatocyte; conditions: read-out: CLH
[5] = Intrinsic clearance in human hepatocytes assessed per 10^6 cells; assay type: ADME, cell-based, Hepatocyte; conditions: read-out: CLH
[6] = Clearance in rat at 4 umol/kg, iv; assay type: ADME, organism-based; conditions: in vivo
[7] = Clearance in dog at 4 umol/kg, iv; assay type: ADME, organism-based, Canis lupus familiaris; conditions: in vivo
[8] = Volume of distribution at steady state in rat at 4 umol/kg, iv; assay type: ADME, organism-based; conditions: in vivo, read-out: Vdss
[9] = Volume of distribution at steady state in dog at 4 umol/kg, iv; assay type: ADME, organism-based, Canis lupus familiaris; conditions: in vivo, read-out: Vdss
[10] = Half life in rat at 4 umol/kg, iv; assay type: ADME, organism-based; conditions: in vivo
[11] = Half life in dog at 4 umol/kg, iv; assay type: ADME, organism-based, Canis lupus familiaris; conditions: in vivo
[12] = Oral bioavailability in rat at 11 umol/kg; assay type: ADME, organism-based; conditions: in vivo
[13] = Oral bioavailability in dog at 4 umol/kg; assay type: ADME, organism-based, Canis lupus familiaris; conditions: in vivo
[14] = Lipophilicity, log D of the compound at pH 7.4; assay type: physicochemical; conditions: buffer
[15] = Lipophilicity, log P of the compound at pH 7.4; assay type: physicochemical; conditions: buffer
[16] = Dissociation constant, pKa of the compound; assay type: physicochemical
[17] = Aqueous solubility of the compound; assay type: physicochemical; conditions: buffer
[18] = target: T2, Voltage-gated inwardly rectifying potassium channel KCNH2 (Homo sapiens, UniProt Q12809); test: Inhibition of human ERG by electrophysiology assay
T2 sequence (Q12809 whole entry): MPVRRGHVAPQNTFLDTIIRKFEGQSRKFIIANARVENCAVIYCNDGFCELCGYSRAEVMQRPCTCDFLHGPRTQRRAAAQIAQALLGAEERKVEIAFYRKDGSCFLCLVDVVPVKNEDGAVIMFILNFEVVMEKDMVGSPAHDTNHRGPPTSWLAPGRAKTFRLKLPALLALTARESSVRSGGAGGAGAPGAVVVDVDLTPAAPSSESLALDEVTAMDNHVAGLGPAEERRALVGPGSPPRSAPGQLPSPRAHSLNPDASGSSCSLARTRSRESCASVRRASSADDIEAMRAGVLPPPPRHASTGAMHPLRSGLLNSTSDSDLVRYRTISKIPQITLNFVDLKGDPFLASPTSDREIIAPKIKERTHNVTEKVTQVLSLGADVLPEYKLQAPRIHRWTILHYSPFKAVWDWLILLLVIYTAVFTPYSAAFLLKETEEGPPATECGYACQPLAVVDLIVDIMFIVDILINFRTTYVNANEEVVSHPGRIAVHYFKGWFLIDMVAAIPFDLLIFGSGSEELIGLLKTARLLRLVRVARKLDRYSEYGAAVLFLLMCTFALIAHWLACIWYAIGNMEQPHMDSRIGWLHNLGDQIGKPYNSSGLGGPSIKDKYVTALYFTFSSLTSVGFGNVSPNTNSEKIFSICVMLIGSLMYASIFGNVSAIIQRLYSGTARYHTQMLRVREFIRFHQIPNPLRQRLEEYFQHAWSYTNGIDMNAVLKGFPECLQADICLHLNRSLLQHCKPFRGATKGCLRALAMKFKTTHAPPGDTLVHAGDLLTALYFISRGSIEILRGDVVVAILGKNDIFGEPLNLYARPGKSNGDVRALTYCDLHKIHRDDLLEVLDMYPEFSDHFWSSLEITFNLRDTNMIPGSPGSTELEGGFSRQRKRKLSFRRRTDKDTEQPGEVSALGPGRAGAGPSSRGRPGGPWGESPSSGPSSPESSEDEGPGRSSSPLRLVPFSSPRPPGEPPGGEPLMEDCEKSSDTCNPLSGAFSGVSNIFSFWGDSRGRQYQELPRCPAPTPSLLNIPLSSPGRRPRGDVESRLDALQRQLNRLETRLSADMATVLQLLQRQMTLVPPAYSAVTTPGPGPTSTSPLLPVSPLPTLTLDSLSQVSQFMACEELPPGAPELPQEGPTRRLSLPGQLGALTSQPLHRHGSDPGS

[19] = target: T1, C-C chemokine receptor type 2; test: Antagonist activity at human CCR2 in human peripheral whole blood assessed as inhibition of MCP1-induced L-selectin shedding; assay type: functional, tissue-based; conditions: read-out: pA2 (converted)
[20] = target: C-C chemokine receptor type 2 (Mus musculus, UniProt P51683); test: Antagonist activity at mouse CCR2 receptor expressed in human THP-1 cells assessed as inhibition of MCP1-induced Ca2+ flux by FLIPR analysis; assay type: functional, cell-based
Sequence of C-C chemokine receptor type 2 (Mus musculus, UniProt P51683) (P51683 whole entry): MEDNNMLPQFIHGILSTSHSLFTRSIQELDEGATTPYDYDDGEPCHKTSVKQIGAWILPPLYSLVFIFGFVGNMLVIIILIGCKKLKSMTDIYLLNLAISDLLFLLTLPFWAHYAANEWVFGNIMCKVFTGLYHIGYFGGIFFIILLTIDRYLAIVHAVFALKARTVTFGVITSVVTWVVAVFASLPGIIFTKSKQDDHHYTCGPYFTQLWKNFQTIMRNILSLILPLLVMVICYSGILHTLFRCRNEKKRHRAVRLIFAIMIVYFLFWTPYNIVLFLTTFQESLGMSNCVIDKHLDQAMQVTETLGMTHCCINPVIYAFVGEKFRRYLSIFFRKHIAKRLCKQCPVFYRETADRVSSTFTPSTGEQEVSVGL

[21] = target: T3, C-C chemokine receptor type 2 (Rattus norvegicus, UniProt O55193); test: Antagonist activity at rat CCR2 receptor expressed in human THP-1 cells assessed as inhibition of MCP1-induced Ca2+ flux by FLIPR analysis; assay type: functional, cell-based
T3 sequence (O55193 whole entry): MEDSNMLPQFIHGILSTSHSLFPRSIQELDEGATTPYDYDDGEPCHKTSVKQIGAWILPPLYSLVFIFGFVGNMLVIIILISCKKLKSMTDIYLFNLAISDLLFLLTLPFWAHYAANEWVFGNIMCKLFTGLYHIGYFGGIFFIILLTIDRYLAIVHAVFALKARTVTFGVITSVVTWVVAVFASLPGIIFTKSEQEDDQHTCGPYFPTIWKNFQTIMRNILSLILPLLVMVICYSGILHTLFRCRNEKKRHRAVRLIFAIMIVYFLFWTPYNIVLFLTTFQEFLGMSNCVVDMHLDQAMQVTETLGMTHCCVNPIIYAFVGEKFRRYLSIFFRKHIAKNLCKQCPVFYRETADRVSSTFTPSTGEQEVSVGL

[22] = Antagonist activity at dog CCR2 receptor expressed in human THP-1 cells assessed as inhibition of MCP1-induced Ca2+ flux by FLIPR analysis; assay type: functional, cell-based
[23] = target: T4, C-C chemokine receptor type 1 (Homo sapiens) (UniProt P32246); test: Inhibition of human CCR1 by FLIPR analysis
T4 sequence (whole entry): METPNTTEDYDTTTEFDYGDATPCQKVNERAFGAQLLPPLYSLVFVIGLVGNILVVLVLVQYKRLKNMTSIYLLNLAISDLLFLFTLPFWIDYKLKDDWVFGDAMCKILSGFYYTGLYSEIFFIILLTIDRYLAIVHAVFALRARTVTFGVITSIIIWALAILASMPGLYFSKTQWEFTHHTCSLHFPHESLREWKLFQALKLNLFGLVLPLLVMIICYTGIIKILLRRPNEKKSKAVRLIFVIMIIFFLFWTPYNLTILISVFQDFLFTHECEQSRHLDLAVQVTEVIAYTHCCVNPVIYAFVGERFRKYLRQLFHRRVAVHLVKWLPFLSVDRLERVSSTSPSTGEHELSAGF

[24] = target: C-C chemokine receptor type 8 (Homo sapiens) (UniProt P51685); test: Inhibition of human CCR8 by FLIPR analysis
Sequence of C-C chemokine receptor type 8 (Homo sapiens) (P51685 whole entry): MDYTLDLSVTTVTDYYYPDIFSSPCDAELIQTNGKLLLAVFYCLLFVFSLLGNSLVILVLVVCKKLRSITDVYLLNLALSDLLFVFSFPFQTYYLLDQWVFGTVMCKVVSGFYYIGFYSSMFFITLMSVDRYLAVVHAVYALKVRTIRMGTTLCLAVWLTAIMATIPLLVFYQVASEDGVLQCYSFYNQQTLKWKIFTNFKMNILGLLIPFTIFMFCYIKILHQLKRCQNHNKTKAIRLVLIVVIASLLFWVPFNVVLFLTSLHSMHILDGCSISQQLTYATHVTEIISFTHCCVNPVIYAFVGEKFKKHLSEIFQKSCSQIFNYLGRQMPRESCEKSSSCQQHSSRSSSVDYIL

[25] = target: C-X-C chemokine receptor type 4 (Homo sapiens) (UniProt P61073); test: Inhibition of human CXCR4 by FLIPR analysis
Sequence of C-X-C chemokine receptor type 4 (Homo sapiens) (P61073 whole entry): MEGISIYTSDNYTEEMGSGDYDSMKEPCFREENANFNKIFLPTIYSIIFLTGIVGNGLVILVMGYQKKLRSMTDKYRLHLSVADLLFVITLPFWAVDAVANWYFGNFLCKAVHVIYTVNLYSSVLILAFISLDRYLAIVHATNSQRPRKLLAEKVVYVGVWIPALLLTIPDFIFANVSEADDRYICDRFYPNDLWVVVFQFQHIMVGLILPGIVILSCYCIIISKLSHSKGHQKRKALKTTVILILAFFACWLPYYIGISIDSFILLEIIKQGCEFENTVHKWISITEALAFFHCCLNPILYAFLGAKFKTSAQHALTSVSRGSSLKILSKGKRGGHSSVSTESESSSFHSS

[26] = target: T5, C-X-C chemokine receptor type 5 (Homo sapiens) (UniProt P32302); test: Inhibition of human CXCR5 by FLIPR analysis
T5 sequence (whole entry): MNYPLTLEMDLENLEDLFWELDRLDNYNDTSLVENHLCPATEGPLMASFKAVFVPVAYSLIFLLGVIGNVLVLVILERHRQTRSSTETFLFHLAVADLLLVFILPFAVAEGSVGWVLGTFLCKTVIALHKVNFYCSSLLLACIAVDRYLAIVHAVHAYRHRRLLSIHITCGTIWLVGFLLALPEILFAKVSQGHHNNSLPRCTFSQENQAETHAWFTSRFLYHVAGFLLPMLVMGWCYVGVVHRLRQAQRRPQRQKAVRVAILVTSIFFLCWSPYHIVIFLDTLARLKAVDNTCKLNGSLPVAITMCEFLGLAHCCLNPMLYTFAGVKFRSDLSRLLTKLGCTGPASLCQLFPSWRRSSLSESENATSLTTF

[27] = target: C-C chemokine receptor type 5 (Homo sapiens, UniProt P51681); test: Inhibition of human CCR5 by FLIPR analysis
Sequence of C-C chemokine receptor type 5 (P51681 whole entry): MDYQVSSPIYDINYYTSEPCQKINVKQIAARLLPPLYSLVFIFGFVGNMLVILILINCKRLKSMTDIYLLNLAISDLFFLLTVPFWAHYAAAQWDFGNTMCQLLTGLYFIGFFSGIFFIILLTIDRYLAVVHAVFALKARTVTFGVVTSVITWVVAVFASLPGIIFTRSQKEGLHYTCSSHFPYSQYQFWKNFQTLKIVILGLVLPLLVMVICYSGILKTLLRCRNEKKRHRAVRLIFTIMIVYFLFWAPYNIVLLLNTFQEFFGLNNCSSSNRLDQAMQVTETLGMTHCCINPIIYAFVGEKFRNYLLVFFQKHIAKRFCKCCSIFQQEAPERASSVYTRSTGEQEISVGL

[28] = target: T2, Voltage-gated inwardly rectifying potassium channel KCNH2
[29] = Aqueous solubility at pH 7. 4; assay type: physicochemical; conditions: buffer
[30] = Fraction unbound in rat plasma; assay type: ADME, cell-free
[31] = Fraction unbound in human plasma; assay type: ADME, cell-free
[32] = Intrinsic clearance in human microsomes assessed per mg of protein; assay type: ADME, Microsome
[33] = Clearance in iv dosed rat; assay type: ADME, organism-based; conditions: in vivo
[34] = Half life in rat; assay type: ADME, organism-based; conditions: in vivo
[35] = Volume of distribution in rat; assay type: ADME, organism-based; conditions: in vivo
[36] = Oral bioavailability in rat; assay type: ADME, organism-based; conditions: in vivo
[37] = target: Cytochrome P450 3A4 (Homo sapiens, UniProt P08684); test: Inhibition of CYP3A4; assay type: ADME
Sequence of Cytochrome P450 3A4 (P08684 whole entry): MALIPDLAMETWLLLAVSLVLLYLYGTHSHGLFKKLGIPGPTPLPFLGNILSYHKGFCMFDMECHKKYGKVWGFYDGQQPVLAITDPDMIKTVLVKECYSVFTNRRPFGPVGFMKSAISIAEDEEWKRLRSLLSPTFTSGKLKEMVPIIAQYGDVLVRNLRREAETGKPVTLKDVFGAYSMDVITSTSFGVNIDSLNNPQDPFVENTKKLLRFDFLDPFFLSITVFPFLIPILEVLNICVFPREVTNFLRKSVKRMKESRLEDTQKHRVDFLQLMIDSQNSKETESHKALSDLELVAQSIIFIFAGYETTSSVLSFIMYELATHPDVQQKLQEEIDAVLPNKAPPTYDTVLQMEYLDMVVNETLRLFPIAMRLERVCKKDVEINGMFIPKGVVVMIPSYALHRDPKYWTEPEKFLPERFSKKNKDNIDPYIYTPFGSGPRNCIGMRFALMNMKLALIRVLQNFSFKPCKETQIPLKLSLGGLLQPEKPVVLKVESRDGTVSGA

[38] = target: Cytochrome P450 2D6 (Homo sapiens, UniProt P10635); test: Inhibition of CYP2D6; assay type: ADME
Sequence of Cytochrome P450 2D6 (P10635 whole entry): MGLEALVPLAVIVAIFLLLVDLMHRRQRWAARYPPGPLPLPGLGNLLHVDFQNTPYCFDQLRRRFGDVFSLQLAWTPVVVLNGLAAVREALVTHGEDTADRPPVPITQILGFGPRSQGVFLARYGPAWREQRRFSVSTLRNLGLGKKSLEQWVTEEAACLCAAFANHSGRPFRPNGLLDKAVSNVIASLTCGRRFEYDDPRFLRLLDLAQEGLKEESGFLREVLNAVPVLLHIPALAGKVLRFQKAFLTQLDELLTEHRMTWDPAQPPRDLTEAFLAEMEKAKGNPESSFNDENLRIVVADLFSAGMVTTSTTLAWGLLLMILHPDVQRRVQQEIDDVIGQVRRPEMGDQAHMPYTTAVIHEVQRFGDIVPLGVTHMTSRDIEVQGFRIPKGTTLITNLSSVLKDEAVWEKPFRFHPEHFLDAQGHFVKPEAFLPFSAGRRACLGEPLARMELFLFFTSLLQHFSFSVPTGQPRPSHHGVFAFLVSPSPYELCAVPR

T1 sequence (P41597 whole entry): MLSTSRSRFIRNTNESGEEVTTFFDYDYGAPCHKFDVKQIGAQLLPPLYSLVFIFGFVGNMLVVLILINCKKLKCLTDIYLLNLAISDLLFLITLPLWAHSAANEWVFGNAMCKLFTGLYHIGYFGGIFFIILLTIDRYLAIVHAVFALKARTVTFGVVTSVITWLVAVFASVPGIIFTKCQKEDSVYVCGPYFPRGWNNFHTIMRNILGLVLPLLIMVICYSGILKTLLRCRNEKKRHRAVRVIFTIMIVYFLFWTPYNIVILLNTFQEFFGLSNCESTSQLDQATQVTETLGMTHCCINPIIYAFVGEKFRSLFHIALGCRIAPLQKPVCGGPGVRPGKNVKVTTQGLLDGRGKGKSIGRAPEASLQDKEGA

IC50 [1]: 0.0035 µM
IC50 [2]: 0.0058 µM
hepatocyte CLint [3]: < 2 µL/min/1e6 cells
hepatocyte CLint [4]: < 2 µL/min/1e6 cells
hepatocyte CLint [5]: < 2 µL/min/1e6 cells
clearance [6]: 30 mL/min/kg
clearance [7]: 17 mL/min/kg
Vd [8]: 4 L/kg
Vd [9]: 8.5 L/kg
half-life [10]: 3 h
half-life [11]: 9.1 h
bioavailability [12]: 11%
bioavailability [13]: 83%
logD [14]: 2.21
logD [15]: 2.7
pKa [16]: 7.8
solubility [17]: > 3100 µM
Kb [19]: 0.00347 µM
IC50 [20]: 1.2 µM
IC50 [21]: 0.2 µM
IC50 [22]: 1.6 µM
inhibition [23]: inactive
inhibition [24]: inactive
inhibition [25]: inactive
inhibition [26]: inactive
IC50 [27]: 0.022 µM
Compound: CC(C)N1CCN[C@@H](C(=O)N2CCN(C(=O)Nc3ccc(Cl)c(Cl)c3)CC2)C1
IC50 [18]: 60 µM
IC50 [28]: 17 µM

IC50 [1]: 0.005 µM
IC50 [2]: 0.042 µM
Compound: O=C(Nc1ccc(Cl)c(Cl)c1)N1CCN(C[C@@H]2CCCN(CCc3ccccc3)C2)CC1

IC50 [1]: 0.032 µM
IC50 [2]: 0.038 µM
Compound: O=C(Nc1ccc(Cl)c(Cl)c1)N1CCN(C(=O)[C@H]2CN(C3CC3)CCN2)CC1
IC50 [28]: 19 µM

IC50 [1]: 5.5 µM
Compound: CN1CCN(C)C(C(=O)N2CCN(C(=O)Nc3ccc(Cl)c(Cl)c3)CC2)C1 (racemic)
IC50 [28]: 13 µM

IC50 [1]: 0.052 µM
IC50 [2]: 0.161 µM
Compound: O=C(Nc1ccc(Cl)c(Cl)c1)N1CCN(C[C@@H]2CCCN(CC3CC3)C2)CC1

IC50 [1]: 0.069 µM
IC50 [2]: 0.362 µM
Compound: CN1CCN[C@@H](C(=O)N2CCN(C(=O)Nc3ccc(Cl)c(Cl)c3)CC2)C1
IC50 [28]: 20 µM

IC50 [1]: 0.021 µM
IC50 [2]: 0.055 µM
Compound: CCN1CCN[C@@H](C(=O)N2CCN(C(=O)Nc3ccc(Cl)c(Cl)c3)CC2)C1

IC50 [1]: 0.098 µM
IC50 [2]: 0.578 µM
Compound: O=C(Nc1cccc(C(F)(F)F)c1)N1CCN(C[C@@H]2CCCN(C3CC3)C2)CC1
IC50 [28]: 13 µM

IC50 [1]: 0.099 µM
IC50 [2]: 0.244 µM
Compound: O=C(Nc1ccc(Cl)c(Cl)c1)N1CCN(C[C@@H]2CCCN(Cc3ccccc3)C2)CC1

IC50 [1]: 0.058 µM
IC50 [2]: 0.162 µM
Compound: O=C(Nc1ccc(Br)cc1)N1CCN(C[C@@H]2CCCN(C3CC3)C2)CC1
IC50 [28]: 7.1 µM

IC50 [1]: 2.57 µM
IC50 [2]: > 1 µM
Compound: CCN1CCOC(C(=O)N2CCN(C(=O)Nc3ccc(Cl)c(Cl)c3)CC2)C1 (racemic)
IC50 [28]: 5 µM

IC50 [1]: 0.017 µM
IC50 [2]: 0.031 µM
Compound: O=C(Nc1ccc(C(F)(F)F)c(Cl)c1)N1CCN(C[C@@H]2CCCN(C3CC3)C2)CC1

IC50 [1]: 0.064 µM
IC50 [2]: 0.28 µM
Compound: O=C(Nc1ccc(Cl)c(Cl)c1)N1CCN(C[C@@H]2CCCN(CCCc3ccccc3)C2)CC1
IC50 [28]: 0.4 µM

IC50 [1]: 1.18 µM
Compound: CCN1CCC[C@H](CN2CCN(C(=O)Nc3ccc(Cl)c(Cl)c3)CC2)C1

IC50 [1]: 0.017 µM
IC50 [2]: 0.042 µM
Compound: CC(C)N1CCO[C@@H](CN2CCN(C(=O)Nc3ccc(Cl)c(Cl)c3)CC2)C1
IC50 [28]: 6.3 µM

IC50 [1]: 0.78 µM
IC50 [2]: 0.95 µM
Compound: O=C(Nc1ccc(Cl)c(Cl)c1)N1CCN(CC2CCCNC2)CC1 (racemic)

IC50 [1]: 1.05 µM
IC50 [2]: 5.87 µM
Compound: N#Cc1cccc(NC(=O)N2CCN(C[C@@H]3CCCN(C4CC4)C3)CC2)c1

IC50 [1]: 0.05 µM
IC50 [2]: 0.075 µM
Compound: O=C(Nc1ccc(F)c(Cl)c1)N1CCN(C[C@@H]2CCCN(C3CC3)C2)CC1
IC50 [28]: 14 µM

IC50 [1]: 0.01 µM
IC50 [2]: 0.064 µM
solubility [29]: 290 µM (≈ 119 µg/mL)
fraction unbound [30]: 0.05
fraction unbound [31]: 0.05
microsomal CLint [32]: 5 µL/min/mg
clearance [33]: 24 mL/min/kg
half-life [34]: 5 h
Vd [35]: 8 L/kg
bioavailability [36]: 11%
IC50 [37]: 1.6 µM
IC50 [38]: 3.1 µM
hepatocyte CLint [3]: 11 µL/min/1e6 cells
Compound: O=C(Nc1ccc(Cl)c(Cl)c1)N1CCN(C[C@@H]2CCCN(C3CC3)C2)CC1

Source: ChEMBL document CHEMBL2034889, “The design and synthesis of novel, potent and orally bioavailable N-aryl piperazine-1-carboxamide CCR2 antagonists with very high hERG selectivity” (Bioorg Med Chem Lett, 2012)
